Converted amounts (≈) assume the structure as drawn.
Legend:
Type in all cases: functional
[1] = tested on: Acinetobacter baumannii; experiment: Antimicrobial activity against ISAba1 linked with the blaOXA-51-type beta-lactamase harboring Acinetobacter baumannii alpha clonal group isolate 1 expressing ampC, ompA, adeB, adeM by Etest method
[2] = tested on: Acinetobacter baumannii; experiment: Antimicrobial activity against Acinetobacter baumannii alpha clonal group isolate 2 expressing ampC, ompA, adeB, adeM, aacC1, aadA1 by Etest method
[3] = tested on: Acinetobacter baumannii; experiment: Antimicrobial activity against Acinetobacter baumannii alpha clonal group isolate 3 expressing ampC, ompA, adeB, adeM, aacC1, aadA1 by Etest method
[4] = tested on: Acinetobacter baumannii; experiment: Antimicrobial activity against Acinetobacter baumannii alpha clonal group isolate 4 expressing ampC, ompA, adeB, adeM, aacC1, aadA1 by Etest method
[5] = tested on: Acinetobacter baumannii; experiment: Antimicrobial activity against Acinetobacter baumannii alpha clonal group isolate 5 expressing ampC, ompA, adeB, adeM, aacC1, aadA1 by Etest method
[6] = tested on: Acinetobacter baumannii; experiment: Antimicrobial activity against ISAba1 linked with the blaOXA-51-type beta-lactamase harboring Acinetobacter baumannii alpha clonal group isolate 6 expressing ampC, ompA, adeB, adeM, aacC1, aadA1 by Etest method
[7] = tested on: Acinetobacter baumannii; experiment: Antimicrobial activity against ISAba1 linked with the blaOXA-51-type beta-lactamase harboring Acinetobacter baumannii alpha clonal group isolate 7 expressing ampC, ompA, adeB, adeM, blaSHV-5 by Etest method
[8] = tested on: Acinetobacter baumannii; experiment: Antimicrobial activity against ISAba1 linked with the blaOXA-51-type beta-lactamase harboring Acinetobacter baumannii alpha clonal group isolate 8 expressing ampC, ompA, adeB, adeM, aacC1, aadA1 by Etest method
[9] = tested on: Acinetobacter baumannii; experiment: Antimicrobial activity against ISAba1 linked with the blaOXA-51-type beta-lactamase harboring Acinetobacter baumannii beta clonal group isolate 9 expressing ampC, ompA, adeB, adeM by Etest method
[10] = tested on: Acinetobacter baumannii; experiment: Antimicrobial activity against ISAba1 linked with the blaOXA-51-type beta-lactamase harboring Acinetobacter baumannii beta clonal group isolate 10 expressing ompA, adeB, adeM, aacA4, blaSHV-5 by Etest method
[11] = tested on: Acinetobacter baumannii; experiment: Antimicrobial activity against ISAba1 linked with the blaOXA-51-type beta-lactamase harboring Acinetobacter baumannii beta clonal group isolate 11 expressing ompA, adeB, adeM, blaSHV-5 by Etest method
[12] = tested on: Acinetobacter baumannii; experiment: Antimicrobial activity against ISAba1 linked with the blaOXA-51-type beta-lactamase harboring Acinetobacter baumannii beta clonal group isolate 12 expressing ompA, adeB, adeM, aacA4, aacC2, blaSHV-5 by Etest method
[13] = tested on: Acinetobacter baumannii; experiment: Antimicrobial activity against ISAba1 linked with the blaOXA-51-type beta-lactamase harboring Acinetobacter baumannii beta clonal group isolate 13 expressing ompA, adeB, adeM, aacA4, blaSHV-5 by Etest method
[14] = tested on: Acinetobacter baumannii; experiment: Antimicrobial activity against ISAba1 linked with the blaOXA-51-type beta-lactamase harboring Acinetobacter baumannii beta clonal group isolate 14 expressing ompA, adeB, adeM, aacA4, blaSHV-5 by Etest method
[15] = tested on: Acinetobacter baumannii; experiment: Antimicrobial activity against ISAba1 linked with the blaOXA-51-type beta-lactamase harboring Acinetobacter baumannii beta clonal group isolate 15 expressing ompA, adeB, adeM, aacA4, blaSHV-5 by Etest method
[16] = tested on: Acinetobacter baumannii; experiment: Antimicrobial activity against ISAba1 linked with the blaOXA-51-type beta-lactamase harboring Acinetobacter baumannii beta clonal group isolate 16 expressing ompA, adeB, adeM, aacA4, blaSHV-5 by Etest method
[17] = tested on: Acinetobacter baumannii; experiment: Antimicrobial activity against ISAba1 linked with the blaOXA-51-type beta-lactamase harboring Acinetobacter baumannii beta clonal group isolate 17 expressing ompA, adeB, adeM, aacA4, blaSHV-5 by Etest method
[18] = tested on: Acinetobacter baumannii; experiment: Antimicrobial activity against ISAba1 linked with the blaOXA-51-type beta-lactamase harboring Acinetobacter baumannii beta clonal group isolate 18 expressing ompA, adeB, adeM, aacA4, blaSHV-5 by Etest method
[19] = tested on: Acinetobacter baumannii; experiment: Antimicrobial activity against ISAba1 linked with the blaOXA-51-type beta-lactamase harboring Acinetobacter baumannii zeta clonal group isolate 19 expressing ampC, ompA, adeB, adeM, aacC2 by Etest method
[20] = tested on: Acinetobacter baumannii; experiment: Antimicrobial activity against ISAba1 linked with the blaOXA-51-type beta-lactamase harboring Acinetobacter baumannii zeta clonal group isolate 20 expressing ampC, ompA, adeB, adeM, aacC2 by Etest method
[21] = tested on: Acinetobacter baumannii; experiment: Antimicrobial activity against ISAba1 linked with the blaOXA-51-type beta-lactamase harboring Acinetobacter baumannii zeta clonal group isolate 21 expressing ampC, ompA, adeB, adeM, aacC2, blaSHV-5 by Etest method
[22] = tested on: Acinetobacter baumannii; experiment: Antimicrobial activity against ISAba1 linked with the blaOXA-51-type beta-lactamase harboring Acinetobacter baumannii zeta clonal group isolate 22 expressing ampC, ompA, adeB, adeM, aadA1, aacA4, aacC2, blaSHV-5 by Etest method
[23] = tested on: Acinetobacter baumannii; experiment: Antimicrobial activity against ISAba1 linked with the blaOXA-51-type beta-lactamase harboring Acinetobacter baumannii zeta clonal group isolate 23 expressing ampC, ompA, adeB, adeM, aadA1, aacA4, aacC2, aphA6 by Etest method
[24] = tested on: Acinetobacter baumannii; experiment: Antimicrobial activity against ISAba1 linked with the blaOXA-51-type beta-lactamase harboring Acinetobacter baumannii zeta clonal group isolate 24 expressing ampC, ompA, adeB, adeM, aadA1, aacA4, aacC2, blaSHV-5 by Etest method
[25] = tested on: Acinetobacter baumannii; experiment: Antimicrobial activity against ISAba1 linked with the blaOXA-51-type beta-lactamase harboring Acinetobacter baumannii zeta clonal group isolate 25 expressing ampC, ompA, adeB, adeM, aadA1, aacA4, aacC2, blaSHV-5 by Etest method
[26] = tested on: Acinetobacter baumannii; experiment: Antimicrobial activity against ISAba1 linked with the blaOXA-51-type beta-lactamase harboring Acinetobacter baumannii zeta clonal group isolate 26 expressing ampC, ompA, adeB, adeM, aadA1, aacA4, aacC2, blaSHV-5 by Etest method
[27] = tested on: Acinetobacter baumannii; experiment: Antimicrobial activity against Acinetobacter baumannii lambda clonal group isolate 27 expressing ampC, ompA, adeB, adeM, aadB, aadA1 by Etest method
[28] = tested on: Acinetobacter baumannii; experiment: Antimicrobial activity against ISAba1 linked with the blaOXA-51-type beta-lactamase harboring Acinetobacter baumannii lambda clonal group isolate 28 expressing ampC, ompA, adeM, aadB, aadA1 by Etest method
[29] = tested on: Acinetobacter baumannii; experiment: Antimicrobial activity against ISAba1 linked with the blaOXA-51-type beta-lactamase harboring Acinetobacter baumannii lambda clonal group isolate 29 expressing ampC, ompA, adeM, aadB, aadA1 by Etest method
[30] = tested on: Acinetobacter baumannii; experiment: Antimicrobial activity against ISAba1 linked with the blaOXA-51-type beta-lactamase harboring Acinetobacter baumannii lambda clonal group isolate 30 expressing ampC, ompA, adeB, adeM, aadB, aadA1 by Etest method
[31] = tested on: Acinetobacter baumannii; experiment: Antimicrobial activity against Acinetobacter baumannii nu clonal group isolate 31 expressing ampC, ompA, adeB, adeM, aadB, aadA2 by Etest method
[32] = tested on: Acinetobacter baumannii; experiment: Antimicrobial activity against Acinetobacter baumannii nu clonal group isolate 32 expressing ampC, ompA, adeB, adeM, aadB, aadA2 by Etest method
[33] = tested on: Acinetobacter baumannii; experiment: Antimicrobial activity against Acinetobacter baumannii nu clonal group isolate 33 expressing ampC, ompA, adeB, adeM by Etest method
[34] = tested on: Acinetobacter baumannii; experiment: Antimicrobial activity against Acinetobacter baumannii nu clonal group isolate 34 expressing ampC, ompA, adeB, adeM by Etest method
[35] = tested on: Acinetobacter baumannii; experiment: Antimicrobial activity against Acinetobacter baumannii eta clonal group isolate 35 expressing ampC, ompA, adeB, adeM by Etest method
[36] = tested on: Acinetobacter baumannii; experiment: Antimicrobial activity against Acinetobacter baumannii eta clonal group isolate 36 expressing ampC, ompA, adeB, adeM by Etest method
[37] = tested on: Acinetobacter baumannii; experiment: Antimicrobial activity against Acinetobacter baumannii unique clonal group isolate 37 expressing ampC, ompA, adeB, adeM by Etest method
[38] = tested on: Acinetobacter baumannii; experiment: Antimicrobial activity against Acinetobacter baumannii unique clonal group isolate 38 expressing ampC, ompA, adeB, adeM by Etest method
[39] = tested on: Acinetobacter baumannii; experiment: Antimicrobial activity against Acinetobacter baumannii unique clonal group isolate 39 expressing ampC, ompA, adeM by Etest method
[40] = tested on: Acinetobacter baumannii; experiment: Antimicrobial activity against ISAba1 linked with the blaOXA-51-type beta-lactamase harboring Acinetobacter baumannii unique clonal group isolate 40 expressing ampC, ompA, adeB, adeM, aadA1, aacA4, aacC2, blaSHV-5 by Etest method

SMILES | MIC [1] [µg/mL] | MIC [2] [µg/mL] | MIC [3] [µg/mL] | MIC [4] [µg/mL] | MIC [5] [µg/mL] | MIC [6] [µg/mL] | MIC [7] [µg/mL] | MIC [8] [µg/mL] | MIC [9] [µg/mL] | MIC [10] [µg/mL] | MIC [11] [µg/mL] | MIC [12] [µg/mL] | MIC [13] [µg/mL] | MIC [14] [µg/mL] | MIC [15] [µg/mL] | MIC [16] [µg/mL] | MIC [17] [µg/mL] | MIC [18] [µg/mL] | MIC [19] [µg/mL] | MIC [20] [µg/mL] | other results
C[C@@H](O)[C@H]1C(=O)N2C(C(=O)O)=C(S[C@@H]3CN[C@H](C(=O)N(C)C)C3)[C@H](C)[C@H]12 [MEROPENEM] | 4 (≈ 10.4 µM) | 1.5 (≈ 3.91 µM) | 1.5 (≈ 3.91 µM) | 1.5 (≈ 3.91 µM) | 1.5 (≈ 3.91 µM) | 12 (≈ 31.3 µM) | > 32 | 24 (≈ 62.6 µM) | > 32 | > 32 | > 32 | > 32 | > 32 | > 32 | > 32 | > 32 | > 32 | > 32 | > 1.5 | > 1.5 | MIC [21]: 16 µg/mL (≈ 41.7 µM); MIC [22]: > 32 µg/mL; MIC [23]: > 32 µg/mL; MIC [24]: > 2 µg/mL; MIC [25]: > 2 µg/mL; MIC [26]: > 2 µg/mL; MIC [27]: 32 µg/mL (≈ 83.4 µM); MIC [28]: > 32 µg/mL; MIC [29]: > 32 µg/mL; MIC [30]: > 32 µg/mL; MIC [31]: 0.38 µg/mL (≈ 0.991 µM); MIC [32]: 0.38 µg/mL (≈ 0.991 µM); MIC [33]: 0.38 µg/mL (≈ 0.991 µM); MIC [34]: 0.38 µg/mL (≈ 0.991 µM); MIC [35]: 0.75 µg/mL (≈ 1.96 µM); MIC [36]: 0.75 µg/mL (≈ 1.96 µM); MIC [37]: 1.5 µg/mL (≈ 3.91 µM); MIC [38]: 0.38 µg/mL (≈ 0.991 µM); MIC [39]: 0.25 µg/mL (≈ 0.652 µM); MIC [40]: > 32 µg/mL
CN(C)c1cc(NC(=O)CNC(C)(C)C)c(O)c2c1C[C@H]1C[C@H]3[C@H](N(C)C)C(O)=C(C(N)=O)C(=O)[C@@]3(O)C(O)=C1C2=O [TIGECYCLINE] | 1 (≈ 1.71 µM) | 1 (≈ 1.71 µM) | 1 (≈ 1.71 µM) | 1 (≈ 1.71 µM) | 1 (≈ 1.71 µM) | 0.75 (≈ 1.28 µM) | 0.75 (≈ 1.28 µM) | 2 (≈ 3.41 µM) | 3 (≈ 5.12 µM) | 1 (≈ 1.71 µM) | 1 (≈ 1.71 µM) | 1 (≈ 1.71 µM) | 0.5 (≈ 0.854 µM) | 0.5 (≈ 0.854 µM) | 0.5 (≈ 0.854 µM) | 0.5 (≈ 0.854 µM) | 0.5 (≈ 0.854 µM) | 3 (≈ 5.12 µM) | 0.75 (≈ 1.28 µM) | 0.75 (≈ 1.28 µM) | MIC [21]: 1.5 µg/mL (≈ 2.56 µM); MIC [22]: 2 µg/mL (≈ 3.41 µM); MIC [23]: 1.5 µg/mL (≈ 2.56 µM); MIC [24]: 1 µg/mL (≈ 1.71 µM); MIC [25]: 1 µg/mL (≈ 1.71 µM); MIC [26]: 1 µg/mL (≈ 1.71 µM); MIC [27]: 0.19 µg/mL (≈ 0.324 µM); MIC [28]: 0.19 µg/mL (≈ 0.324 µM); MIC [29]: 0.19 µg/mL (≈ 0.324 µM); MIC [30]: 2 µg/mL (≈ 3.41 µM); MIC [31]: 0.5 µg/mL (≈ 0.854 µM); MIC [32]: 0.5 µg/mL (≈ 0.854 µM); MIC [33]: 0.5 µg/mL (≈ 0.854 µM); MIC [34]: 0.5 µg/mL (≈ 0.854 µM); MIC [35]: 0.25 µg/mL (≈ 0.427 µM); MIC [36]: 0.25 µg/mL (≈ 0.427 µM); MIC [37]: 0.25 µg/mL (≈ 0.427 µM); MIC [38]: 0.09 µg/mL (≈ 0.154 µM); MIC [39]: 0.25 µg/mL (≈ 0.427 µM); MIC [40]: 0.75 µg/mL (≈ 1.28 µM)

Source: ChEMBL document CHEMBL1671617, “Correlation of antimicrobial resistance with beta-lactamases, the OmpA-like porin, and efflux pumps in clinical isolates of Acinetobacter baumannii endemic to New York City” (2008)
